For 32 molecules, EC50 results are on record in patent US10160729B2, “Hsp70 modulators and methods for making and using the same” (Memorial Sloan Kettering Cancer Center, priority 2014, dated 2018).

Molecules are shown by their SMILES.

The experiment concerns MOLM-13 cells. Description: Caspase cleavage assay (Caspase3, 7 activation). Type of experiment: cell-based. Conditions: Homo sapiens, 16 h treatment, caspase substrate Z-DEVD-R110, read-out: c* Concentration at which 50% of the maximum signal was achieved (caspase activation). The procedure: Caspase3, 7 Activation. MOLM-13 cells (30,000 cells/well) were plated in black 96-well plates (Corning Cat. #3603) in 40 μL of RPMI media, and left in an incubator (37° C., 5% CO2) for up to 24 h. Cells were treated for 16 h with compounds or DMSO (control) at desired concentrations in 50 μL of media. Drugs were added in triplicate wells. Following exposure of cells to Hsp70 inhibitors, 50 μL of buffer containing 10 mM HEPES (pH 7.5), 2 mM EDTA, 0.1% CHAPS and the caspase substrate Z-DEVD-R110 at 25 μM was added to each well. Plates were incubated until the signal stabilized and then the fluorescence signal of each well was measured in an Analyst GT microplate reader. The percentage increase in apoptotic cells was calculated by comparison of the fluorescence reading obtained from treated versus control cells.
Take `CN1CCN(c2ncc(Sc3ccc(C(=O)O)cc3)c(OCc3ccccc3)n2)CC1` [compound 81, 4-((4-(Benzyloxy)-2-(4-methylpiperazin-1-yl)pyrimidin-5-yl)thio)benzoic acid]: the EC50 was in the range of 1000 to 1200 nM.

Take `CNC(=O)c1ccc(Sc2cnc(N3CCN(C)CC3)nc2OCc2ccccc2)cc1` [compound 83, 4-((4-(Benzyloxy)-2-(4-methylpiperazin-1-yl)pyrimidin-5-yl)thio)-N-methylbenzamide]: the EC50 fell in the range of 400 to 1000 nM.

As for `CN1CCN(c2ncc(Sc3ccc(C(=O)N(C)C)cc3)c(OCc3ccccc3)n2)CC1` [compound 84, 4-((4-(Benzyloxy)-2-(4-methylpiperazin-1-yl)pyrimidin-5-yl)thio)-N,N-dimethylbenzamide], the EC50 was 200 to 400 nM.

Take `CN1CCN(c2ncc(Sc3ccc(C(=O)NCN4CCCC4)cc3)c(OCc3ccccc3)n2)CC1` [compound 92, 4-((4-(Benzyloxy)-2-(4-methylpiperazin-1-yl)pyrimidin-5-yl)thio)-N-(pyrrolidin-1-ylmethyl)benzamide]: the EC50 was 400 to 1000 nM.

`CN1CCN(c2ncc(Sc3ccc(C(=O)NCN4CCCCC4)cc3)c(OCc3ccccc3)n2)CC1` [compound 93, 4-((4-(Benzyloxy)-2-(4-methylpiperazin-1-yl)pyrimidin-5-yl)thio)-N-(piperidin-1-ylmethyl)benzamide]: the EC50 lay within 1000 to 1200 nM.

Turning to `COc1ccc(COc2nc(N3CCN(C)CC3)ncc2Sc2ccc(C(N)=O)cc2)cc1` [compound 96, 4-((4-((4-Methoxybenzyl)oxy)-2-(4-methylpiperazin-1-yl)pyrimidin-5-yl)thio)benzamide], the EC50 lay in the range of 400 to 1000 nM.

Turning to `CN1CCN(c2ncc(Sc3ccc(C(N)=O)cc3)c(OCc3cccc(N=[N+]=[N-])c3)n2)CC1` [compound 101, 4-((4-((3-Azidobenzyl)oxy)-2-(4-methylpiperazin-1-yl)pyrimidin-5-yl)thio)benzamide], the EC50 is less than 200 nM.

With `CN1CCN(c2ncc(Sc3ccc(C(N)=O)cc3)c(NCc3ccccc3)n2)CC1` [compound 102, 4-((4-(Benzylamino)-2-(4-methylpiperazin-1-yl)pyrimidin-5-yl)thio)benzamide], the EC50 lay in the range of 200 to 400 nM.

`COc1cccc(COc2nc(N3CCN(C)CC3)ncc2Sc2ccc(C(N)=O)c(Cl)c2)c1` [compound 108, 2-Chloro-4-((4-((3-methoxybenzyl)oxy)-2-(4-methylpiperazin-1-yl)pyrimidin-5-yl)thio)benzamide]: the EC50 was less than 200 nM.

As for `COc1ccc(F)c(COc2nc(N3CCN(C)CC3)ncc2Sc2ccc(C(N)=O)c(Cl)c2)c1` [compound 109], the EC50 was less than 200 nM.

Take `COc1cc(F)cc(COc2nc(N3CCN(C)CC3)ncc2Sc2ccc(C(N)=O)c(Cl)c2)c1` [compound 110, 2-Chloro-4-((4-((3-fluoro-5-methoxybenzyl)oxy)-2-(4-methylpiperazin-1-yl)pyrimidin-5-yl)thio)benzamide]: the EC50 was 200 to 400 nM.

Take `COc1cc(COc2nc(N3CCN(C)CC3)ncc2Sc2ccc(C(N)=O)c(Cl)c2)ccc1F` [compound 111, 2-Chloro-4-((4-((4-fluoro-3-methoxybenzyl)oxy)-2-(4-methylpiperazin-1-yl)pyrimidin-5-yl)thio)benzamide]: the EC50 was less than 200 nM.

With `COc1c(F)ccc(COc2nc(N3CCN(C)CC3)ncc2Sc2ccc(C(N)=O)c(Cl)c2)c1F` [compound 112, 2-Chloro-4-((4-((2,4-difluoro-3-methoxybenzyl)oxy)-2-(4-methylpiperazin-1-yl)pyrimidin-5-yl)thio)benzamide], the EC50 is less than 200 nM.

As to `CN1CCN(c2ncc(Sc3ccc(C(N)=O)c(Cl)c3)c(OCc3ccc(F)c(Cl)c3)n2)CC1` [compound 113, 2-Chloro-4-((4-((3-chloro-4-fluorobenzyl)oxy)-2-(4-methylpiperazin-1-yl)pyrimidin-5-yl)thio)benzamide], the EC50 was less than 200 nM.

Take `CN1CCN(c2ncc(Sc3ccc(C(N)=O)c(Cl)c3)c(OCc3ccc(F)c(Br)c3)n2)CC1` [compound 114, 4-((4-((3-Bromo-4-fluorobenzyl)oxy)-2-(4-methylpiperazin-1-yl)pyrimidin-5-yl)thio)-2-chlorobenzamide]: the EC50 was less than 200 nM.

Turning to `CN1CCN(c2ncc(Sc3ccc(C(N)=O)c(Cl)c3)c(OCc3ccc(F)c(C(F)(F)F)c3)n2)CC1` [compound 115, 2-Chloro-4-((4-((4-fluoro-3-(trifluoromethyl)benzyl)oxy)-2-(4-methylpiperazin-1-yl)pyrimidin-5-yl)thio)benzamide], the EC50 is 200 to 400 nM.

Take `CN1CCN(c2ncc(Sc3ccc(C(N)=O)c(Cl)c3)c(OCc3cccc(N(C)C)c3)n2)CC1` [compound 116, 2-Chloro-4-((4-((3-(dimethylamino)benzyl)oxy)-2-(4-methylpiperazin-1-yl)pyrimidin-5-yl)thio)benzamide]: the EC50 was less than 200 nM.

Regarding `CN1CCN(c2ncc(Sc3ccc(C(N)=O)c(Cl)c3)c(OCc3cccc(N)c3)n2)CC1` [compound 117, 4-((4-((3-Aminobenzyl)oxy)-2-(4-methylpiperazin-1-yl)pyrimidin-5-yl)thio)-2-chlorobenzamide], the EC50 lay within 200 to 400 nM.

On to `CN1CCN(c2ncc(Sc3ccc(C(N)=O)c(Cl)c3)c(OCc3ccc(F)c(N)c3)n2)CC1` [compound 118, 4-((4-((3-Amino-4-fluorobenzyl)oxy)-2-(4-methylpiperazin-1-yl)pyrimidin-5-yl)thio)-2-chlorobenzamide], for which the EC50 lay in the range of 400 to 1000 nM.

Turning to `CN1CCN(c2ncc(Sc3ccc(C(N)=O)c(Cl)c3)c(OCc3cccc(OC(F)F)c3)n2)CC1` [compound 121, 2-Chloro-4-((4-((3-(difluoromethoxy)benzyl)oxy)-2-(4-methylpiperazin-1-yl)pyrimidin-5-yl)thio)benzamide], the EC50 is 200 to 400 nM.

Regarding `CN1CCN(c2ncc(Sc3ccc(C(N)=O)c(Cl)c3)c(OCc3cccc(O)c3)n2)CC1` [compound 122, 2-Chloro-4-((4-((3-hydroxybenzyl)oxy)-2-(4-methylpiperazin-1-yl)pyrimidin-5-yl)thio)benzamide], the EC50 lay within 200 to 400 nM.

Take `COc1cccc(COc2nc(N3CCN(C)CC3)ncc2Sc2ccc(C(N)=O)c(Cl)c2)n1` [compound 123, 2-Chloro-4-((4-((6-methoxypyridin-2-yl)methoxy)-2-(4-methylpiperazin-1-yl)pyrimidin-5-yl)thio)benzamide]: the EC50 fell in the range of 200 to 400 nM.

Regarding `COc1cc(COc2nc(N3CCN(C)CC3)ncc2Sc2ccc(C(N)=O)c(Cl)c2)ccn1` [compound 124, 2-Chloro-4-((4-((2-methoxypyridin-4-yl)methoxy)-2-(4-methylpiperazin-1-yl)pyrimidin-5-yl)thio)benzamide], the EC50 is less than 200 nM.

As to `COc1cncc(COc2nc(N3CCN(C)CC3)ncc2Sc2ccc(C(N)=O)c(Cl)c2)c1` [compound 125, 2-Chloro-4-((4-((5-methoxypyridin-3-yl)methoxy)-2-(4-methylpiperazin-1-yl)pyrimidin-5-yl)thio)benzamide], the EC50 is less than 200 nM.

For `COc1ccnc(COc2nc(N3CCN(C)CC3)ncc2Sc2ccc(C(N)=O)c(Cl)c2)c1` [compound 126, 2-Chloro-4-((4-((4-methoxypyridin-2-yl)methoxy)-2-(4-methylpiperazin-1-yl)pyrimidin-5-yl)thio)benzamide], the EC50 fell in the range of 200 to 400 nM.

With `CN1CCN(c2ncc(Sc3ccc(C(N)=O)c(Cl)c3)c(OCc3ccc(F)c(O)c3)n2)CC1` [compound 127, 2-Chloro-4-((4-((4-fluoro-3-hydroxybenzyl)oxy)-2-(4-methylpiperazin-1-yl)pyrimidin-5-yl)thio)benzamide], the EC50 is 400 to 1000 nM.

In the case of `CN1CCN(c2ncc(Sc3ccc(C(N)=O)c(C(F)(F)F)c3)c(OCc3cccc(Cl)c3)n2)CC1` [compound 131, 4-((4-((3-Chlorobenzyl)oxy)-2-(4-methylpiperazin-1-yl)pyrimidin-5-yl)thio)-2-(trifluoromethyl)benzamide], the EC50 was less than 200 nM.

With `CN1CCN(c2ncc(Sc3ccc(C(N)=O)c(C(F)(F)F)c3)c(OCc3ccc(F)c(Cl)c3)n2)CC1` [compound 132, 4-((4-((3-Chloro-4-fluorobenzyl)oxy)-2-(4-methylpiperazin-1-yl)pyrimidin-5-yl)thio)-2-(trifluoromethyl)benzamide], the EC50 was less than 200 nM.

With `CN1CCN(c2ncc(Sc3ccc(C(N)=O)c(C(F)(F)F)c3)c(OCc3cc(Cl)ccc3F)n2)CC1` [compound 133, 4-((4-((5-Chloro-2-fluorobenzyl)oxy)-2-(4-methylpiperazin-1-yl)pyrimidin-5-yl)thio)-2-(trifluoromethyl)benzamide], the EC50 is less than 200 nM.

As to `CN1CCN(c2ncc(Sc3ccc(C(N)=O)c(C(F)(F)F)c3)c(OCc3ccc(F)c(Br)c3)n2)CC1` [compound 134, 4-((4-((3-Bromo-4-fluorobenzyl)oxy)-2-(4-methylpiperazin-1-yl)pyrimidin-5-yl)thio)-2-(trifluoromethyl)benzamide], the EC50 lay in the range of 200 to 400 nM.

In the case of `CN1CCN(c2ncc(Sc3ccc(C(N)=O)c(C(F)(F)F)c3)c(OCc3ccc(F)cc3F)n2)CC1` [compound 135, 4-((4-((2,4-Difluorobenzyl)oxy)-2-(4-methylpiperazin-1-yl)pyrimidin-5-yl)thio)-2-(trifluoromethyl)benzamide], the EC50 lay within 200 to 400 nM.

`COc1cccc(COc2nc(N3CCN(C)CC3)ncc2Sc2ccc(C(N)=O)c(C(F)(F)F)c2)c1` [compound 136, 4-((4-((3-Methoxybenzyl)oxy)-2-(4-methylpiperazin-1-yl)pyrimidin-5-yl)thio)-2-(trifluoromethyl)benzamide]: the EC50 is less than 200 nM.
